Data taken from US20100292266A1, “Oxazolyl Piperidine Modulators of Fatty Acid Amide Hydrolase” (priority 2006, published 2010).
pIC50: −log10 of the molar value.

Tests used:
FAAH = target: T1, FAAH (Homo sapiens, UniProt O00519); assay: Assay Method 1: FAAH assay, 3H-anandamide hydrolysis in cell homogenate; format: biochemical; parameters: expressed in transfected cells; details: T84 or transfected SK-N-MC cell homogenate, 80 nM 3H-AEA, 1 h rt, > = solubility limit or highest concentration tested
T1 sequence (O00519 1-579): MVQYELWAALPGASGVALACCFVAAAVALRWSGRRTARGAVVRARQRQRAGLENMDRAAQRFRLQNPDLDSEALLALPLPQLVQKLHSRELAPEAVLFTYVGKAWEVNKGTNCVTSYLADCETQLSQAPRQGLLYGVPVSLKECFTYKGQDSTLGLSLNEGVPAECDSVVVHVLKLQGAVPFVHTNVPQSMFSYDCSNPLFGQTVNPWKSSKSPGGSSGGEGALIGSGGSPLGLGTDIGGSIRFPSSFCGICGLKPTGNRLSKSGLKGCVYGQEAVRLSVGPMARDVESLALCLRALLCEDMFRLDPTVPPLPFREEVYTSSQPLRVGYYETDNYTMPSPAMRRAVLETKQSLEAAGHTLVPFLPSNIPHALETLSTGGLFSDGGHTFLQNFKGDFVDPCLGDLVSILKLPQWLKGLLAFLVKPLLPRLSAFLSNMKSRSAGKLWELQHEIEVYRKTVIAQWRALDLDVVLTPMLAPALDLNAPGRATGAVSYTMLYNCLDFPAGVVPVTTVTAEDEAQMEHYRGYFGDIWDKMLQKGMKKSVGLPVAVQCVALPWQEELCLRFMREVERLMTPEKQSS
Method: A. Transfection of Cells with Human FAAH
(§1) A 10-cm tissue culture dish with a confluent monolayer of SK-N-MC cells was split 2 days (d) prior to transfection. Using sterile technique, the media was removed and the cells were detached from the dish by the addition of trypsin. One fifth of the cells were then placed onto a new 10-cm dish. Cells were grown in a 37° C. incubator with 5% CO2 in Minimal Essential Media Eagle with 10% Fetal Bovine Serum. After 2 d, cells were approximately 80% confluent. These cells were removed from the dish with trypsin and pelleted in a clinical centrifuge. The pellet was re-suspended in 400 μL complete media and transferred to an electroporation cuvette with a 0.4 cm gap between the electrodes. Supercoiled human FAAH cDNA (1 μg) was added to the cells and mixed. The voltage for the electroporation was set at 0.25 kV, and the capacitance was set at 960 μF. After electroporation, the cells were diluted into complete media (10 mL) and plated onto four 10-cm dishes. Because of the variability in the efficiency of electroporation, four different concentrations of cells were plated. The ratios used were 1:20, 1:10, and 1:5, with the remainder of the cells being added to the fourth dish. The cells were allowed to recover for 24 h before adding the selection media (complete media with 600 μg/mL G418). After 10 d, dishes were analyzed for surviving colonies of cells. Dishes with well-isolated colonies were used. Cells from individual colonies were isolated and tested.
(§2) The assay mixture consisted of 50 μL of the cell homogenate, 10 μL of the test compound, and 40 μL of anandamide [1-^3H-ethanolamine] (^3H-AEA, Perkin-Elmer, 10.3 Ci/mmol), which was added last, for a final tracer concentration of 80 nM. The reaction mixture was incubated at rt for 1 h. During the incubation, 96-well Multiscreen filter plates (catalog number MAFCNOB50; Millipore, Bedford, Mass., USA) were loaded with 25 μL of activated charcoal (Multiscreen column loader, catalog number MACL09625, Millipore) and washed once with 100 μL of MeOH. Also during the incubation, 96-well DYNEX MicroLite plates (catalog number NL510410) were loaded with 100 μL of MicroScint40 (catalog number 6013641, Packard Bioscience, Meriden, Conn., USA). After the 1 h incubation, 60 μL of the reaction mixture were transferred to the charcoal plates, which were then assembled on top of the DYNEX plates using Centrifuge Alignment Frames (catalog number MACF09604, Millipore). The unbound labeled ethanolamine was centrifuged through to the bottom plate (5 min at 2000 rpm), which was preloaded with the scintillant, as described above. The plates were sealed and left at rt for 1 h before counting on a Hewlett Packard TopCount.
(§3) Where activity is shown as greater than (>) a particular value, the value is the solubility limit of the compound in the assay medium or the highest concentration tested in the assay.

Rat FAAH = target: T2, Rat FAAH (Rattus norvegicus, UniProt P97612); assay: Assay Method 2: FAAH assay, 3H-anandamide hydrolysis in cell homogenate; format: biochemical; details: transfected SK-N-MC cell homogenate, 80 nM 3H-AEA, 1 h rt, > = solubility limit or highest concentration tested
T2 construct: expressed in transfected cells
T2 sequence (P97612 1-579): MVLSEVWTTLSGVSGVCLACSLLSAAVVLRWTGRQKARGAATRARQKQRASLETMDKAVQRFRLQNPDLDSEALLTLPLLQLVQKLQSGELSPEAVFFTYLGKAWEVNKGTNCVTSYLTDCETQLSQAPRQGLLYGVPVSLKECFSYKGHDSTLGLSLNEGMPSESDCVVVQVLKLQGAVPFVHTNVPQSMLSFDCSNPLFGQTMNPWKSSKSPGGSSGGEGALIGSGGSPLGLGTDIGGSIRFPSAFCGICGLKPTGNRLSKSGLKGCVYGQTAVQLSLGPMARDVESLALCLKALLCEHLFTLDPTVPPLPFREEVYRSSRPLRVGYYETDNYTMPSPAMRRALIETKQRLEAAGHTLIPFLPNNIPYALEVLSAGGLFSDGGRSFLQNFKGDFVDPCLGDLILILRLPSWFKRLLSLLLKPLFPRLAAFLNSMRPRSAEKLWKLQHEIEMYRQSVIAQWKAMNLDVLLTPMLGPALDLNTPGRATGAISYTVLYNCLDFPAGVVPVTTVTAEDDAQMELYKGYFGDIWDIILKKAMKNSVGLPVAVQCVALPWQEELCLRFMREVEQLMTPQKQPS
Method: A. Transfection of Cells with Rat FAAH
as §1, with “rat” for “human”
as §2, with “incubated at […] for 1” for “incubated at rt for 1”, “labeled ethanolamine . was centrifuged” for “labeled ethanolamine was centrifuged”
as §3

| pIC50 (FAAH) | pIC50 (Rat FAAH) | Structure (SMILES) |
| --- | --- | --- |
| 7.60 | 7.40 | O=C(c1ncco1)C1CCN(Cc2cccc(OC(F)(F)F)c2)CC1 [Example 37, Oxazol-2-yl-[1-(3-trifluoromethoxy-benzyl)-piperidin-4-yl]-methanone] |
| 7.10 | 5.70 | Cn1ccc2cc(CN3CCC(C(=O)c4ncco4)CC3)ccc21 [Example 39, [1-(1-Methyl-1H-indol-5-ylmethyl)-piperidin-4-yl]-oxazot-2-yl-methanone] |
| 7.55 | 6.88 | O=C(c1ncco1)C1CCN(Cc2cccc(Oc3ccccc3)c2)CC1 [Example 56, Oxazol-2-yl-[1-(3-phenoxy-benzyl)-piperidin-4-yl]-methanone] |
| 5.92 | 5.10 | O=C(c1ncco1)C1CCN(S(=O)(=O)c2ccc(Cl)cc2)CC1 [Example 4, [1-(4-Chloro-benzenesulfonyl)-piperidin-4-yl]-oxazol-2-yl-methanone] |
| 6.23 | 6.33 | Cc1ccc2cc(CN3CCC(C(=O)c4ncco4)CC3)c(Cl)nc2c1 [Example 69, [1-(2-Chloro-7-methyl-quinolin-3-ylmethyl)-piperidin-4-yl]-oxazol-2-yl-methanone] |
| 6.30 | 6.54 | O=C(c1ncco1)C1CCN(Cc2cc3ccc(Cl)cc3nc2Cl)CC1 [Example 70, [1-(2,7-Dichloro-quinolin-3-ylmethyl)-piperidin-4-yl]-oxazol-2-yl-methanone] |
| 6.96 | 6.77 | CC(C)c1ccc(CN2CCC(C(=O)c3ncco3)CC2)cc1 [Example 86, [1-(4-Isopropyl-benzyl)-piperidin-4-yl]-oxazol-2-yl-methanone] |
| 7.55 | 6.46 | O=C(c1ncco1)C1CCN(C(=O)c2ccc3ccccc3c2)CC1 [Example 10, [1-(Naphthalene-2-carbonyl)-piperidin-4-yl]-oxazol-2-yl-methanone] |
| 6.60 | 6.01 | Cc1cccc(CN2CCC(C(=O)c3ncco3)CC2)c1 [Example 65, [1-(3-Methyl-benzyl)-piperidin-4-yl]-oxazol-2-yl-methanone] |
| 7.00 | 7.20 | O=C(c1ncco1)C1CCN(Cc2cccc3ccccc23)CC1 [Example 48, (1-Naphthalen-1-ylmethyl-piperidin-4-yl)-oxazol-2-yl-methanone] |
| 6.13 | < 5.00 | O=C(c1ncco1)C1CCN(Cc2cc3cc4c(cc3nc2Cl)OCO4)CC1 [Example 67, [1-(6-Chloro-[1,3]dioxolo[4,5-g]quinolin-7-ylmethyl)-piperidin-4-yl]-oxazol-2-yl-methanone] |
| 7.52 | 7.05 | O=C(c1ncco1)C1CCN(Cc2cnc3ccccc3n2)CC1 [Example 78, Oxazol-2-yl-(1-quinoxalin-2-ylmethyl-piperidin-4-yl)-methanone] |
| 6.28 | < 5.00 | O=C(c1ncco1)C1CCN(Cc2ccc3[nH]ccc3c2)CC1 [Example 42] |
| 6.67 | 5.80 | O=C(c1ncco1)C1CCN(Cc2ccc3cc[nH]c3c2)CC1 [Example 45, [1-(1H-Indol-6-ylmethyl)-piperidin-4-yl]-oxazol-2-yl-methanone] |
| 5.10 | 5.10 | O=C(c1ncco1)C1CCN(S(=O)(=O)c2cccc(Cl)c2)CC1 [Example 5, [1-(3-Chloro-benzenesulfonyl)-Diperidin-4-yl]-oxazol-2-yl-methanone] |
| 7.92 | 7.40 | O=C(c1ncco1)C1CCN(Cc2ccc3cccc(O)c3n2)CC1 [Example 79, [1-(8-Hydroxy-quinolin-2-ylmethyl)-piperidin-4-yl]-oxazol-2-yl-methanone] |
| 8.52 | 8.10 | O=C(c1ncco1)C1CCN(Cc2ccc3ccc(Cl)cc3n2)CC1 [Example 76, [1-(7-Chloro-quinolin-2-ylmethyl)-piperidin-4-yl]-oxazol-2-yl-methanone] |
| 5.67 | 5.12 | O=C(c1ncco1)C1CCN(C(=O)c2ccc(Cl)cc2)CC1 [Example 11, [1-(4-Chloro-benzoyl)-piperidin-4-yl]-oxazol-2-yl-methanone] |
| 5.30 | < 5.00 | CC(C)Oc1ccc(CN2CCC(C(=O)c3ncco3)CC2)cc1 [Example 23, [1-(4-Isopropoxy-benzyl)-piperidin-4-yl]-oxazol-2-yl-methanone] |

| Structure (SMILES) | pIC50 (FAAH) | pIC50 (Rat FAAH) |
| --- | --- | --- |
| O=C(c1ncco1)C1CCN(Cc2cc3ccccc3s2)CC1 [Example 54, (1-Benzo[b]thoiphen-2-ylmethyl-piperidin-4-yl)-oxazol-2-yl-methanone] | 8.70 | 8.05 |
